Source: PubChem BioAssay (NCI)
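Cultured in 96-well plates, cells were exposed to test compound for 48 hours across five concentrations. GI50 marks 50% less growth. Definition used: TGI = concentration required for complete inhibition of growth.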

Experiments:
Test in all cases: NCI anticancer screen, dose series, 48 h
[1] = test system: ACHN renal
[2] = test system: HS 578T breast
[3] = test system: SK-MEL-2 melanoma
[4] = test system: HT29 colon
[5] = test system: RPMI-8226 leukemia
[6] = test system: COLO 205 colon
[7] = test system: U251 CNS
[8] = test system: HL-60(TB) leukemia
[9] = test system: SK-OV-3 ovarian
[10] = test system: MALME-3M melanoma

SMILES | TGI [1] [µM] | TGI [2] [µM] | TGI [3] [µM] | TGI [4] [µM] | TGI [5] [µM] | TGI [6] [µM] | TGI [7] [µM] | TGI [8] [µM] | TGI [9] [µM] | TGI [10] [µM] | GI50 [1] [µM] | GI50 [2] [µM] | GI50 [4] [µM] | GI50 [5] [µM] | GI50 [7] [µM] | GI50 [8] [µM]
COc1cc(-c2nc3ccc(N4CCN(C)CC4)cc3[nH]2)c(OC)c2[nH]c(COC(C)=O)nc12 | > 100 | > 100 | > 100 | > 100 | > 100 | > 100 | > 100 | > 100 | > 100 | 63.8 | – | – | – | – | – | –
COc1ccccc1Cc1ccc(C2C=CC3(CC(=O)C=C3C)C(=O)C2)o1 (stereo unspecified) | > 100 | 68.7 | 30.8 | > 100 | 39.2 | 50.5 | 30.6 | 41.7 | – | 47.5 | – | – | – | – | – | –
Cc1ccc(C(=O)Nc2ccc(CP(=O)(O)O)cc2)cc1NC(=O)c1cccc(N)c1 | > 100 | > 100 | > 100 | > 100 | > 100 | > 100 | > 100 | > 100 | > 100 | > 100 | – | – | – | – | – | –
COC(=O)/C=C\C(C#N)(C#N)N=Cc1cccc(OC)c1 | 7.63 | 38 | 32.4 | 10.5 | > 28 | 5.06 | 32.2 | > 100 | 47.1 | 4.37 | – | – | – | – | – | –
CC(=O)Oc1cc(S(=O)(=O)Nc2n[nH]c(Nc3ccc(C)cc3)n2)c(S)cc1Cl | > 100 | > 100 | > 100 | > 100 | > 100 | > 100 | > 100 | > 100 | – | > 100 | – | – | – | – | – | –
Cc1nc(SCC(=O)Nc2ccc(Cl)cc2)c2sc(=S)n(-c3ccccc3)c2n1 | > 10 | > 10 | > 10 | > 10 | > 10 | > 10 | > 10 | > 10 | > 10 | > 10 | – | – | – | – | – | –
CSC1(C)C(=O)Nc2c(OCc3ccccc3)cc([N+](=O)[O-])cc21 (stereo unspecified) | > 100 | 32.6 | > 100 | > 100 | > 100 | > 100 | 37.3 | > 100 | > 100 | > 100 | – | – | – | – | – | –
S=C(N/N=C(\c1ccccc1)c1ccccn1)NC1CCCCC1 | > 100 | > 100 | > 100 | > 100 | > 100 | > 100 | > 100 | > 100 | > 100 | > 100 | – | – | – | – | – | –
CC1(c2sccc2Cl)CC(c2sccc2Cl)=C(C#N)C(=C(C#N)C#N)N1 (stereo unspecified) | 32.5 | 48.5 | 39.3 | 54.6 | 88 | 41.8 | 33.8 | > 100 | 31.5 | 32.8 | – | – | – | – | – | –
CCCNC(=S)N/N=C(\C)c1ccc(S(=O)(=O)N(C)c2ccccc2)cc1 | > 64.9 | 24.4 | > 100 | > 100 | > 31.6 | > 100 | > 78 | > 100 | 97 | > 100 | – | – | – | – | – | –
COC(=O)c1c(C(=O)OC)c2ccccn2c1-c1cc(OC)c(Br)c(=O)o1 | > 100 | > 100 | > 100 | > 100 | > 100 | > 100 | – | > 100 | > 100 | > 100 | – | – | – | – | – | –
COC(=O)C1CCN(C(=O)OC(C)(C)C)CC1 | > 100 | > 100 | > 100 | > 100 | > 100 | > 100 | > 100 | > 100 | – | > 100 | – | – | – | – | – | –
NNC(=O)CC(=O)Nc1cccc(Cl)c1 | > 100 | > 100 | > 100 | > 100 | > 100 | > 100 | > 100 | > 100 | > 100 | > 100 | – | – | – | – | – | –
CSc1nc(C)cc(Nc2ccc(O)c(CN3CCOCC3)c2)n1 | > 100 | > 100 | > 100 | > 100 | > 100 | > 100 | > 100 | > 100 | > 100 | > 100 | – | – | – | – | – | –
CN(C)c1ccc(/C=C/c2ccc(S(N)(=O)=O)cc2)cc1 | 33.6 | 12.6 | > 100 | > 100 | > 100 | 99.2 | 31.7 | > 100 | 31.4 | 37.6 | 13.6 | 3.03 | 30.8 | 11.6 | 11.2 | > 100
CC(=O)c1[nH]c(NC(C)C)c(C(=S)Nc2ccccc2)c1N | > 100 | > 100 | 33 | > 100 | 27.9 | > 100 | – | > 100 | > 100 | 89.2 | – | – | – | – | – | –
